Here are results for 18 substances from patent publication US20240270821A1, “GIP/GLP1/GCG TRI-RECEPTOR AGONISTS AND USES THEREOF” (priority 2023, published 2024).

Holding throughout (format): cell-based
Test [1] deals with T1, hGIPR (Homo sapiens, UniProt P48546).
T1 sequence (P48546 22-466): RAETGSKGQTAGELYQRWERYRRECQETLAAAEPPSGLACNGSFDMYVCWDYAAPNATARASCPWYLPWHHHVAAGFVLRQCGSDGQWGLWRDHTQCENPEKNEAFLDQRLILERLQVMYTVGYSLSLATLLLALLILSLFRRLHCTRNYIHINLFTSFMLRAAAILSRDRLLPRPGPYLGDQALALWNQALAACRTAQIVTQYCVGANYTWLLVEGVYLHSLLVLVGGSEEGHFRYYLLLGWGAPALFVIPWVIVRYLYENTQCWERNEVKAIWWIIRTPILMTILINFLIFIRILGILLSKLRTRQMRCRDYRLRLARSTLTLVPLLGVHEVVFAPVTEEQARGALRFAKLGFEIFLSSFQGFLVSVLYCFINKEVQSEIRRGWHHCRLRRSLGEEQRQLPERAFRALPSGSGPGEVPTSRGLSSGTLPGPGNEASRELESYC
As to the kind of experiment: Functional cAMP activity in the presence of 1% HSA. To be noted: read-out: cAMP Rel EC50, hGIPR.

Test [2] deals with T2, hGLP-1R (Homo sapiens, UniProt P43220). Description: Functional cAMP activity in the presence of 1% HSA. The settings on record: read-out: cAMP Rel EC50, hGLP-1R.
T2 sequence (P43220 24-463): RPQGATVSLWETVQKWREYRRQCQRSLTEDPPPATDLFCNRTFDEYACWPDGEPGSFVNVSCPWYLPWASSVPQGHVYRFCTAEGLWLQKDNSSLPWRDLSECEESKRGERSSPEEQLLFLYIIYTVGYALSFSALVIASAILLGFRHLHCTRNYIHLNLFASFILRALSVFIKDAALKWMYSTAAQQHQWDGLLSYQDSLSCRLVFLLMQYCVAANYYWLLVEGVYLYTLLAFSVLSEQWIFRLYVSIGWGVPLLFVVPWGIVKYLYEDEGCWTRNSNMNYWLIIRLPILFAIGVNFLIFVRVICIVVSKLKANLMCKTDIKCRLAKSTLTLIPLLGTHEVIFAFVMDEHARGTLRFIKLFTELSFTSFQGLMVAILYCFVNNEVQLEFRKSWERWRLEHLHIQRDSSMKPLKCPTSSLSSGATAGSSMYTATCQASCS
A further test deals with human GcgR (Homo sapiens, UniProt P47871). As to the kind of experiment: Functional cAMP activity in the presence of 1% HSA. To be noted: read-out: cAMP Rel EC50, hGcgR.
Sequence of human GcgR (P47871 26-477): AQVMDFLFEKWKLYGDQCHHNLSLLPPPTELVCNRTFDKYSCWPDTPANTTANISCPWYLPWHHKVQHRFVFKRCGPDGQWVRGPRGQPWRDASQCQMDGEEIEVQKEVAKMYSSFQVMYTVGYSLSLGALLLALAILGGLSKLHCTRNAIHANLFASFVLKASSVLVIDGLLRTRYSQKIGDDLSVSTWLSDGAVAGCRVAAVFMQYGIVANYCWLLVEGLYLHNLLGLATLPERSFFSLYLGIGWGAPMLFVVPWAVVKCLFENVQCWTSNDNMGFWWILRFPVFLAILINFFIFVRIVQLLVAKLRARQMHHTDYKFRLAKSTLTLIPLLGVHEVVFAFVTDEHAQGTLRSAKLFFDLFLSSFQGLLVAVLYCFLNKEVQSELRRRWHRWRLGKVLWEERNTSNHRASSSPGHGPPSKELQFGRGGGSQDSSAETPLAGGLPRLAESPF
Test [3] addresses T1, hGIPR. As to the kind of experiment: Functional cAMP activation in the presence of 0.1% casein (no HSA). The settings on record: in the presence of 0.1% casein (no HSA); geometric mean; read-out: Relative cAMP EC50, hGIPR.
The target of test [4] is T2, hGLP-1R. The description is as above. The settings on record: in the presence of 0.1% casein (no HSA); geometric mean; read-out: Relative cAMP EC50, hGLP-1R.
For the next test, the target named is hGcgR (Homo sapiens, UniProt P47871). The test is described as above. To be noted: in the presence of 0.1% casein (no HSA); geometric mean; read-out: Relative cAMP EC50, hGcgR.
Sequence of hGcgR (P47871 26-477): as above
[5] abbreviates: HEK-293 clonal cell line, in the presence of 1% HSA, geometric mean of relative EC50.

Where two headings read alike, the source gives them in different places. Starred links: 1 amine or outer side, 2 acyl side, 3 side chain; linkers in the order of their positions; H or OH if unused. Non-standard residues stand in square brackets, D forms with d. Groups on a side chain read outwards from the residue. *: point of attachment. C18 diacid = O=C(O)CCCCCCCCCCCCCCCCC(=O)*; γGlu = O=C(O)[C@H](CCC(=O)[*:2])N[*:1]; αMe4Pal = C[C@](N)(Cc1ccncc1)C(=O)O; 4Pal = N[C@@H](Cc1ccncc1)C(=O)O; αMeL = CC(C)C[C@](C)(N)C(=O)O; Aib = CC(C)(N)C(=O)O
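Wherever Relative cAMP EC50, hGIPR is given: intracellular cAMP rise after 30 min at 37 °C read by HTRF against a standard curve, scaled between buffer alone (0%) and top control ligand concentration (100%), four-parameter fit.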
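Wherever Relative cAMP EC50, hGLP-1R is given: intracellular cAMP rise after 30 min at 37 °C read by HTRF, normalized between buffer only (0%) and maximal control ligand (100%), four-parameter variable-slope fit.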
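Wherever Relative cAMP EC50, hGcgR is given: intracellular cAMP rise after 30 min at 37 °C, read by HTRF against a cAMP standard curve, scaled from buffer only (0%) to maximal control ligand response (100%).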

Take “H-Y[Aib]QGTFTSD[4Pal]SQ[αMeL]LDKK([γGlu-γGlu-C18 diacid])AQ[αMe4Pal]AFIEYLIAGGESSGAPPPSGSEE-NH2 [Example 963]”: the EC50 on hGIPR [1] was determined as 25.1 nM; at hGLP-1R [2] it was 215 nM; on human GcgR, 900 nM; on hGIPR [3], 0.244 nM; on hGLP-1R [4], 1.77 nM; at hGcgR, 5.81 nM.

For “H-Y[Aib]QGTFTSD[4Pal]SQ[αMeL]LDKK([γGlu-γGlu-C18 diacid])AQ[αMe4Pal]AFIEYLIAGGPSSGAPPPEGS-NH2 [Example 969]”, the EC50 on hGIPR [1] was found to be 12.6 nM; on hGLP-1R [2] it was 113 nM; on human GcgR, 660 nM; at hGIPR [3], 0.142 nM; on hGLP-1R [4], 1.21 nM; on hGcgR, 5.48 nM.

“H-Y[Aib]QGTFTSD[4Pal]SQ[αMeL]LDKK([γGlu-γGlu-C18 diacid])AQ[αMe4Pal]AFIEYLIAGGPSSGAPPPSGSEE-NH2 [Example 960]”: the 50% effective concentration (EC50) on hGIPR [1] was found to be 14.1 nM; at hGLP-1R [2], 161 nM; at human GcgR, 813 nM; at hGIPR [3] it was 0.124 nM; at hGLP-1R [4], 1.51 nM; at hGcgR, 5.5 nM.

For “H-Y[Aib]QGTFTSD[4Pal]SQ[αMeL]LDKK([γGlu-γGlu-C18 diacid])AQ[αMe4Pal]AFIEYLIAGGPSSGEPPPSGS-NH2 [Example 968]”, the EC50 stood at 11.7 nM on hGIPR [1]; 103 nM at hGLP-1R [2]; 625 nM on human GcgR; 0.0928 nM at hGIPR [3]; 1.04 nM at hGLP-1R [4]; 4.72 nM on hGcgR.

On to “H-Y[Aib]QGTFTSD[4Pal]SQ[αMeL]LDKK([γGlu-γGlu-C18 diacid])AQ[αMe4Pal]AFIEYLIE[Aib]GPSSGAPPPEGE-NH2 [Example 884]”, for which the EC50 at hGIPR [1] turned out to be 23.5 nM; at hGLP-1R [2] it was 298 nM; on human GcgR, 613 nM; at hGIPR [3], 0.155 nM; at hGLP-1R [4], 4.17 nM; on hGcgR, 3.82 nM.

“H-Y[Aib]QGTFTSD[4Pal]SQ[αMeL]LDKK([γGlu-γGlu-C18 diacid])AQ[αMe4Pal]AFIEYLIE[Aib]GPSSGAPPPSGE-NH2 [Example 882]”: the EC50 worked out at 26.6 nM on hGIPR [1]; 361 nM at hGLP-1R [2]; 559 nM on human GcgR; 0.129 nM at hGIPR [3]; 2.33 nM on hGLP-1R [4]; 2.73 nM at hGcgR.

For “H-Y[Aib]QGTFTSD[4Pal]SQ[αMeL]LDKK([γGlu-γGlu-C18 diacid])AQ[αMe4Pal]AFIEYLIE[Aib]GPSSGAPPPSGSE-NH2 [Example 890]”, the EC50 on hGIPR [1] was 14.2 nM; on hGLP-1R [2] it was 290 nM; at human GcgR, 559 nM; at hGIPR [3], 0.113 nM; on hGLP-1R [4] it was 3.19 nM; on hGcgR it was 4.73 nM.

For the substance “H-Y[Aib]QGTFTSD[4Pal]SQ[αMeL]LDKK([γGlu-γGlu-C18 diacid])AQ[αMe4Pal]AFIEYLIE[Aib]GPSSGAPPPSGSEE-NH2 [Example 899]”, the EC50 at hGIPR [1] is 15.6 nM; on hGLP-1R [2] it was 592 nM; on human GcgR it was 814 nM; on hGIPR [3] it was 0.133 nM; on hGLP-1R [4], 4.11 nM; at hGcgR it was 4.4 nM.

As for “H-Y[Aib]QGTFTSD[4Pal]SQ[αMeL]LDKK([γGlu-γGlu-C18 diacid])AQ[αMe4Pal]AFIEYLIE[Aib]GPSSGAPPPSGSEEE-NH2 [Example 900]”, the EC50 on hGIPR [1] turned out to be 17 nM; on hGLP-1R [2] it was 666 nM; on human GcgR, 885 nM; at hGIPR [3], 0.173 nM; at hGLP-1R [4], 3.99 nM; at hGcgR, 4.74 nM.

Take “H-Y[Aib]QGTFTSD[4Pal]SQ[αMeL]LDKK([γGlu-γGlu-C18 diacid])AQ[αMe4Pal]AFIEYLIE[Aib]GPSSGAPPPSGSGE-NH2 [Example 891]”: the EC50 turned out to be 16 nM at hGIPR [1]; 330 nM on hGLP-1R [2]; 581 nM on human GcgR; 0.155 nM on hGIPR [3]; 3.25 nM at hGLP-1R [4]; 3.14 nM at hGcgR.

Regarding “H-Y[Aib]QGTFTSD[4Pal]SQ[αMeL]LDKK([γGlu-γGlu-C18 diacid])AQ[αMe4Pal]AFIEYLIE[Aib]GPSSGAPPPSGTE-NH2 [Example 1126]”, the EC50 on hGIPR [1] came to 13.5 nM; on hGLP-1R [2], 208 nM; at human GcgR, 452 nM; at hGIPR [3] it was 0.174 nM; on hGLP-1R [4], 4.56 nM; on hGcgR, 3.92 nM.

On to “H-Y[Aib]QGTFTSD[4Pal]SQ[αMeL]LDKK([γGlu-γGlu-C18 diacid])AQ[αMe4Pal]AFIEYLIE[Aib]GPSSGAPPPSGTGE-NH2 [Example 1127]”, for which the EC50 at hGIPR [1] (setting [5]) amounted to 7.72 nM; at hGLP-1R [2] (setting [5]), 234 nM; on human GcgR (setting [5]) it was 425 nM; at hGIPR [3], 0.167 nM; on hGLP-1R [4], 6.16 nM; on hGcgR it was 5.95 nM.

Take “H-Y[Aib]QGTFTSD[4Pal]SQ[αMeL]LDKK([γGlu-γGlu-C18 diacid])AQ[αMe4Pal]AFIEYLLAGGPSSGAPPPSGSEE-NH2 [Example 1036]”: the EC50 on hGIPR [1] was determined as 13 nM; at hGLP-1R [2], 1080 nM; on human GcgR it was 353 nM; on hGIPR [3], 0.114 nM; at hGLP-1R [4] it was 6.87 nM; on hGcgR, 2.05 nM.

Take “H-Y[Aib]QGTFTSD[4Pal]SQ[αMeL]LDKK([γGlu-γGlu-C18 diacid])AQ[αMe4Pal]AFIE[αMe4Pal]LIEGGPSSGAPPPSGS-NH2 [Example 951]”: the EC50 at hGIPR [1] was found to be 18.2 nM; on hGLP-1R [2] it was 382 nM; on human GcgR it was 657 nM; at hGIPR [3] it was 0.156 nM; on hGLP-1R [4], 2.61 nM; on hGcgR, 5.73 nM.

Regarding “H-Y[Aib]QGTFTSD[4Pal]SQ[αMeL]LDKK([γGlu-γGlu-C18 diacid])AQ[αMe4Pal]AFIE[αMe4Pal]LIEGGPSSGAPPPSGSEE-NH2 [Example 957]”, the EC50 on hGIPR [1] worked out at 25 nM; at hGLP-1R [2], 747 nM; at human GcgR, 947 nM; on hGIPR [3] it was 0.213 nM; on hGLP-1R [4], 5.01 nM; on hGcgR it was 4.18 nM.

Regarding “H-Y[Aib]QGTFTSD[4Pal]SQ[αMeL]LDKK([γGlu-γGlu-C18 diacid])AQ[αMe4Pal]AFIE[αMe4Pal]LIE[Aib]GPSSGAPPPSGE-NH2 [Example 1120]”, the EC50 at hGIPR [1] stood at 9.21 nM; at hGLP-1R [2], 171 nM; at human GcgR, 291 nM; on hGIPR [3], 0.096 nM; at hGLP-1R [4], 4.5 nM; on hGcgR, 5.17 nM.

Consider “H-Y[Aib]QGTFTSD[4Pal]SQ[αMeL]LDKK([γGlu-γGlu-C18 diacid])AQ[αMe4Pal]AFIE[αMe4Pal]LIE[Aib]GPSSGAPPPSGTGE-NH2 [Example 1119]”, for which the EC50 at hGIPR [1] was found to be 3.95 nM; on hGLP-1R [2], 152 nM; at human GcgR, 237 nM; at hGIPR [3], 0.0939 nM; at hGLP-1R [4], 3.57 nM; at hGcgR it was 7.61 nM.

For the substance “H-Y[Aib]QGTFTSD[4Pal]SQ[αMeL]LDKK([γGlu-γGlu-C18 diacid])AQ[αMe4Pal]AFIE[αMe4Pal]LIE[Aib]GPSSGEPPPSGE-NH2 [Example 1123]”, the EC50 was 3.89 nM at hGIPR [1]; 191 nM at hGLP-1R [2]; 441 nM at human GcgR; 0.101 nM on hGIPR [3]; 4.47 nM on hGLP-1R [4]; 5.53 nM at hGcgR.

One may read the EC50 as the concentration giving half of the maximal effect.
